Legend:
[1] = system: human platelet-rich plasma; assay: U46619-induced platelet aggregation in human platelet-rich plasma; format: cell-based; conditions: U46619 1 μM
Description: (§1) Human platelet suspension (PS) was prepared according to the method described previously. Briefly, blood sample, freshly obtained from healthy volunteers who had taken no medications during the preceding 2 weeks, was treated with acid citrate/dextrose (ACD) in a volume ratio of 9:1. After centrifugation at 120 g, 25° C. for 9 min, platelet-rich plasma was transferred into another plastic tube and incubated with heparin (6.4 U/ml) as well as prostaglandin E1 (1 μM). Platelets were spun down by centrifugation at 500 g, 25° C. for 8 min and subsequently washed two times with Tyrode solution (NaH2PO4 0.4 mM; NaCl 136.9 mM; KCl […]; NaHCO3 11.9 mM; CaCl2 2 mM; MgCl2 2.1 mM; glucose 11.1 mM; BSA 3.5 mg/ml; pH 7.35-7.4). The washed platelets were finally suspended in Tyrode's solution and the platelet count was adjusted to 3.75×10^8 platelets/ml. For platelet-rich plasma (PRP) preparation, whole blood was anticoagulated with 1/10 vol of sodium citrate (3.8%, w/v) and centrifuged at 150 g, 25° C. for 9 min.
(§2) Platelet aggregation was measured turbidimetrically with a Lumi-aggregometer (Payton Scientific) at 37° C. under stirring condition (900 rpm). […] The extent of platelet aggregation was determined by recording the increase of light transmission relative to that of control (maximal aggregation, as 100%) for 6 min after the addition of inducer. […]

[2] = system: washed human platelets; assay: LDH assay in washed human platelets; format: cell-based; conditions: 10 μM
From the text: To begin with, potency of aggregation inhibition and estimated the IC50 of Ctkf6f2 on platelet aggregation caused by different agonists was investigated. […] In addition, the effect of Ctkf6f2 in platelet-rich plasma was also investigated. […] Furthermore, concentration-dependent inhibition curve in platelet suspension and platelet-rich plasma could be observed as well from FIG. 3. Moreover, LDH assay in washed human platelets with various Ctkf6f2 concentration used in the following experiments was performed.

[3] = system: rat carotid artery; assay: Balloon-injury rat carotid artery model (neointima formation); format: in vivo; conditions: 1 or 2 mg/kg/day intraperitoneally for 2 weeks; rats
Description: We used the established rat carotid artery (CA) model of balloon angioplasty to examine the in vivo arterial response to injury^20. Briefly, male Wistar rats weighing 350-400 g were anesthetized with intraperitoneal pentobarbital (50 mg/kg), and the left CA was exposed. A Fogarty 2F embolectomy balloon catheter was inserted into the left external carotid artery through arteriotomy incision and advanced to the aortic arch. The balloon was inflated and withdrawn three times with rotation at the same pressure. Followed by removal of the catheter, the external carotid artery was ligated and the wound closed. Animals were given standard rat chow and tap water, and i.p. administered 1 and 2 mg/kg or vehicle daily for 2 weeks, at which time they were sacrificed, and the sections from both the right and left (collateral control group) CA were harvested to fix with 4% paraformaldehyde in PBS overnight for study. All procedures involving animal experiments were approved by the Institutional Animal Care and Use Committee of Collagen of Medicine, National Taiwan University.
We further determined the inhibitory effect of nstpbp5185 on neointima formation after carotid artery injury. […] (FIG. 16G) Data are quantified by the neointima/media ratio of common carotid arteries after balloon injury. […]

[4] = system: mice carotid artery; assay: FeCl3-induced thrombus formation in mice carotid artery; format: in vivo; conditions: intravenous administration
Description: FIG. 14 The antithrombotic activity of nstpbp5185 in FeCl3-induced thrombi formation in mice carotid artery. (A) Mice were intravenously administered with Heparin (10 or 100 U kg^−1), Aspirin (40 or 80 μg g^−1), or different doses of nstpbp5185 (B). After 5 min, FeCl3 injury was induced by a filter paper saturated with ferric chloride solution (10%). After removal of the paper, carotid blood flow (ml min^−1) was monitored continuously until thromboembolism formation or for 60 min. (C) Mice were orally administered with different doses of Aspirin and nstpbp5185 (D). Both drugs were suspended in 1% CMC. Blood flow monitoring were recorded used analyzed Labchart software (AD instruments). Data are presented as the mean±SEM (n≧3). **P<0.01 and ***P<0.001 as compared with the vehicle control (DMSO).
Mice were intravenously or orally administered with different doses of nstpbp5185.

[5] = system: human platelet suspension; assay: Thrombin-induced platelet aggregation in human platelet suspension; format: cell-based; conditions: data not shown
Description: as §1, §2

[6] = biological target: T1, Thromboxane synthase (Homo sapiens, UniProt P24557); assay: Thromboxane synthase activity (Table III comparison); format: biochemical
T1 construct: MDS
T1 sequence (P24557 1-533): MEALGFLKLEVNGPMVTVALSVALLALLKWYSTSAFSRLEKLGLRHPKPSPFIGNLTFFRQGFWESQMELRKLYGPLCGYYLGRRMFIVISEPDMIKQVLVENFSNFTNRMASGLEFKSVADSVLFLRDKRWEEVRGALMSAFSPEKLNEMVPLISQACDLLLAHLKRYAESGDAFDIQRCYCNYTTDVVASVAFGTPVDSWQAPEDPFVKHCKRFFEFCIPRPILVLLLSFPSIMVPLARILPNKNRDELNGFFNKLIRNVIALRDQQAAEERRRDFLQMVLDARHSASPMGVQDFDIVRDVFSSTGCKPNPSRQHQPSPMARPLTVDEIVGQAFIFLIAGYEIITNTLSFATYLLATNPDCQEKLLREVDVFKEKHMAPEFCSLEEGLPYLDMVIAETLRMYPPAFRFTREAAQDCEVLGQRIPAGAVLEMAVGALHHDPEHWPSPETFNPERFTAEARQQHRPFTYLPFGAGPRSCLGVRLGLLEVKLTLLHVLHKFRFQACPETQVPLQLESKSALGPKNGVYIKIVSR
Description: These kinases or enzymatic assays were performed by MDS according to the standardized methods

Cc1ccc(-c2nc3ccc(F)cc3n2Cc2cccc(F)c2)o1 [Ctkf6f2, 6-fluoro-1-(3-fluorobenzyl)-2-(5-methyl-2-furyl)benzimidazole]
IC50 [1]: 3.27 ± 1.01 µM
cytotoxicity to platelets (LDH assay) [2]: little cytotoxicity

Cc1ccc(-c2nc3ccccc3n2Cc2ccccc2)o1 [Example 6, 1-Benzyl-2-(5-methyl-2-furyl)benzimidazole]
N/M ratio (neointima/media) [3]: significantly inhibited
ED50 FeCl3-induced thrombus formation [4]: ≈ 2.6 μg g^−1
effect on platelet aggregation caused by thrombin [5]: little effects
Thromboxane synthase ([6]; Table III arrows): ↓
IC50 ([6]; read-out: Thromboxane synthase inhibition IC50): 10 µM

Source: patent publication US20170152245A1 (National Taiwan University, priority 2015, published 2017)
